These results are taken from patent US20250186397A1, “COMPOUNDS FOR THE USE IN THE TREATMENT OF MOOD DISORDERS” (Kanna Health Ltd, priority 2022, published 2025).

Assay [1] deals with human recombinant PDE-4B1 (Homo sapiens, UniProt Q07343). The assay is described as follows: PDE4-B1 assay (SPA). Format: biochemical. As to conditions: human recombinant enzyme, 450 nM cAMP. The method, then:
(§1) Test compounds (conc range), reference compound or vehicle control were added to assay buffer containing (in mM); Tris/HCl, pH 7.4 (40), MgCl2 (8) and EGTA/NaOH (1.7), containing 450 nM cAMP (450 nM) and 0.25 μCi (PDE-4B1) or 0.0125 μCi (PDE-4D2) [^3H] CAMP. 20 mins after addition of human recombinant PDE-4B1 (1.2 IEU) or PDE-4D2 (1.5 IEU), SPA beads were added and incubated at 22° C. for a further 30 mins. [^3H]5′AMP was quantified by a standard scintillation counting method.
(§2) Data were expressed as the mean of two technical replicates for each data point, and percent inhibition calculated relative to maximum inhibition observed in the presence of the reference comparator rolipram for PDE-4 assays, and imipramine for serotonin assays.

Assay [2] has as its target human recombinant PDE-4D2 (Homo sapiens, UniProt Q08499). The assay is described as follows: PDE4-D2 assay (SPA). Format: biochemical. The conditions noted are these: human recombinant enzyme, 450 nM cAMP; read-out: IC50 PDE-4D2. The method, then:
as §1, §2

Assay [3] concerns zebrafish. The conditions noted are these: isolated alkaloids, Maphanga et al., 2022; cited from earlier work.
Assay [4] addresses T1, human serotonin transporter (Homo sapiens, UniProt P31645).
T1 construct: expressed in transfected cells; host or cells: CHO cells
The assay is described as follows: SERT assay, [3H] serotonin uptake in transfected CHO cells. The conditions noted are these: CHO cells with human serotonin transporter, 180 min. Format: cell-based. The method, then: Test compounds (conc range), reference compound or vehicle control were incubated for 180 min at room temperature with CHO cells stably transfected with the human serotonin transporter (5×10^3 cells/well) with 0.15 μM [3H] serotonin in the presence or absence of the test or reference compound in buffer containing (in mM); Tris/HCl (pH 7.4) (5), HEPES/Tris (7.5), NaCl (120), KCl (5.4), CaCl2) (1.2), MgSO4 (1.2), Glucose (5) and ascorbic acid (1). Following incubation, [3H] serotonin uptake was quantified by a standard scintillation counting method.
as §2

Chain of human recombinant PDE-4B1 (Q07343 whole entry): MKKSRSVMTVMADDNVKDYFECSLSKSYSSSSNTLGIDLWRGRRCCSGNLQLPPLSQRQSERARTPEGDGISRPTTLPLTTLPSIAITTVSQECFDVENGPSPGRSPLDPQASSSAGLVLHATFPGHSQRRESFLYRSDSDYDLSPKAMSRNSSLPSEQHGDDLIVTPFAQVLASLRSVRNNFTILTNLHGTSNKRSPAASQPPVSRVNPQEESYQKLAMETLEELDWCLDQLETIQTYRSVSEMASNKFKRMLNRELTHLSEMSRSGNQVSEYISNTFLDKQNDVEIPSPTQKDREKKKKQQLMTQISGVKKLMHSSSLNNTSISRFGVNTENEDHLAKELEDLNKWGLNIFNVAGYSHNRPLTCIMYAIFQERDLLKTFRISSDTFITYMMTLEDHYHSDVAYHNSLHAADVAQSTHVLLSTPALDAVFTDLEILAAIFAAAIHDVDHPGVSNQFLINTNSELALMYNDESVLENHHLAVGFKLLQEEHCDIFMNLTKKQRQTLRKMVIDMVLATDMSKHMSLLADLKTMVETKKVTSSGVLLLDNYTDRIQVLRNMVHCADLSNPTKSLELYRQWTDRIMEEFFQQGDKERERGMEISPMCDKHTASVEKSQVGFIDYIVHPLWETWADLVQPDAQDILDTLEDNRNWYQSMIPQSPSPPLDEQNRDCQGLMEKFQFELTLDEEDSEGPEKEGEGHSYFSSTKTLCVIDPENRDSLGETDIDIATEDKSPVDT
T1 sequence (P31645 whole entry): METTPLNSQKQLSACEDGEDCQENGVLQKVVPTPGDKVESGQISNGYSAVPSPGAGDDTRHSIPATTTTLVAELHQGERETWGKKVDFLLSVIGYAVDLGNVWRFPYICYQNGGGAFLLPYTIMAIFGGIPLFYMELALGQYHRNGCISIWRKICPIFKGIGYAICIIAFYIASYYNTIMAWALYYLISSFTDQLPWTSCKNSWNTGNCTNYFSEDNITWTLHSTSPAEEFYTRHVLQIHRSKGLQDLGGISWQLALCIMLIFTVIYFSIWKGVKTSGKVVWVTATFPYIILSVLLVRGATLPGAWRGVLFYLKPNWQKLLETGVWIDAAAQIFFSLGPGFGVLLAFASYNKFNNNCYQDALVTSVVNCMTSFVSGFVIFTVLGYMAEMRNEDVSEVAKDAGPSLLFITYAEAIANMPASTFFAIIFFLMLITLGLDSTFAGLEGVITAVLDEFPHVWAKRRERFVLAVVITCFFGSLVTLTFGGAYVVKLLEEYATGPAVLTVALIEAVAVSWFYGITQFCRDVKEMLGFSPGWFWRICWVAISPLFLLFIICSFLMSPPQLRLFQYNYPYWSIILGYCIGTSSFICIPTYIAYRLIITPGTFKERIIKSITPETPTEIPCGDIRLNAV
Chain of human recombinant PDE-4D2 (Q08499 303-809 limits assumed): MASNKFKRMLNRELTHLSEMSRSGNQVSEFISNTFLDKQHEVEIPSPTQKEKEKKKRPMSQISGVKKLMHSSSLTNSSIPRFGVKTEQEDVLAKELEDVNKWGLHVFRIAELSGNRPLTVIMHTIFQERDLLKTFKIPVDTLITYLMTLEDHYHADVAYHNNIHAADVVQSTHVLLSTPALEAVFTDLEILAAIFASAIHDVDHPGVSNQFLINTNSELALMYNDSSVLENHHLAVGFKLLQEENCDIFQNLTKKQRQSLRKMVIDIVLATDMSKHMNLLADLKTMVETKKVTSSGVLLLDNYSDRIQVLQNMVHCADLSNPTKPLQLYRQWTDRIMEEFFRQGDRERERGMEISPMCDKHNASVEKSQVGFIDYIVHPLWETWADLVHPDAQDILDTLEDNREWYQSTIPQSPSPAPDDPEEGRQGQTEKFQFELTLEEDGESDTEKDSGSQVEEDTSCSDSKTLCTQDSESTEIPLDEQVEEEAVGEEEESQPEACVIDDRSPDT

One may read the IC50 as the concentration that gives 50% inhibition. As to `CN(C)CCCN1c2ccccc2CCc2ccccc21` [Imipramine, reference compound], the IC50 in assay [1] is 1600 nM; in assay [2] it was 144 to 300 nM. In the case of `COc1ccc([C@@]23C=CC(=O)C[C@@H]2N(C)CC3)cc1OC` [mesembrenone], the “effect in zebrafish model of anxiety” value in assay [3] is on record as “anxiolytic-like effect”.

Take `COc1ccc(C2CNC(=O)C2)cc1OC1CCCC1` (centres unmarked) [Rolipram, reference compound]: in assay [4], half-maximal inhibition (IC50) was put at 23.2 nM. Regarding `COc1ccc([C@@]23CCC(=O)C[C@@H]2N(C)CC3)cc1OC` [mesembrine], the “effect in zebrafish model of anxiety” value in assay [3] was “anxiolytic-like effect”.
